From patent publication US6610670B2, “Cyclodextrin-drospirenone inclusion complexes” (Schering Aktiengesellschaft, priority 2000, dated 2003) come the findings set out here.

The solubility is the concentration that dissolves in the medium under given conditions.

The data set can be described thus: Phase solubility diagram technique (PSD) in aqueous solutions at 20° C. Type of data set: physicochemical. As to conditions: water, thermodynamic from solid, aqueous solution. As for the experimental part:
The following data were obtained with the phase solubility diagram technique (PSD) In aqueous solutions at 20° C. The stability constants of the inclusion compound from β-CD and drospirenone are given.

The structures appear in SMILES notation.

Consider `C[C@]12CCC(=O)C=C1[C@@H]1C[C@@H]1[C@H]1[C@@H]3[C@@H]4C[C@@H]4[C@@]4(CCC(=O)O4)[C@@]3(C)CC[C@@H]12` [Drospirenone, 6β,7β;15β,16β-dimethylene-3-oxo-17α-pregn-4-ene-21,17-carbolactone], for which the concentration in solution (solubility) came to 41.4 µM. For the setting “value in parentheses”, the solubility stood at 15.1 µg/mL.
